Measured values as given in patent publication US8252737B2, “Antimicrobial peptides and methods of use” (priority 2004, dated 2012).
Values after ≈ are worked out from the molar mass of the structure shown. Read-outs that look alike come from different tables or passages of the source.

What was measured:
[1] = system: Staphylococcus epidermidis
[2] = system: E. coli (UB 1005 wt and DC2 abs); details: for MIC (μg/ml) E. coli C500 abs: antibiotic sensitive strain; for MIC (μg/ml) E. coli C498 wt: wild-type lab strain
Experimental: (§1) The geometric mean MIC values from 6 microbial strains in this table were calculated to provide an overall evaluation of antimicrobial activity against gram-negative bacteria.
(§2) Measurement of Antimicrobial Activity—Minimal inhibitory concentrations (MICs) were determined using a standard microtiter dilution method in LB (Luria-Bertani) no-salt medium (10 g of tryptone and 5 g of yeast extract per liter). Briefly, cells were grown overnight at 37° C. in LB and diluted in the same medium. […] Plates were incubated at 37° C. for 24 hours and MICs determined as the lowest peptide concentration that inhibited growth. Alternatively, minimal inhibitory concentrations were determined using a standard microtiter dilution method in a Mueller-Hinton (MH) medium. Briefly, cells were grown overnight at 37° C. in MH broth and diluted in the same medium. […] Plates were incubated at 37° C. for 24 hours and MICs determined as the lowest peptide concentration that inhibited growth. However, for MIC determination of Pseudomonas aeruginosa clinical isolates, brain heart infusion (BH1) medium was used instead of MH broth. In addition, the bacteria were diluted to a final inoculum of 1×10^6 colony-forming units/ml.

S. typhimurium C610 abs = system: S. typhimurium C610 abs
Experimental: as §1, §2

[3] = Experimental: as §1, §2
P. aeruginosa H187 wt = system: P. aeruginosa H187 wt
Experimental: as §1, §2

E. faecalis = system: E. faecalis
How it was run: (§3)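 Microtiter dilution in LB no-salt or Mueller-Hinton medium, with BHI for Pseudomonas aeruginosa clinical isolates (final inoculum 1×10^6 CFU/ml). Plates were incubated 24 hours at 37° C. MIC was the lowest peptide concentration inhibiting growth.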

C. albicans = system: C. albicans
How it was run: as §3

[4] = CD temperature denaturation study of peptide V681; type: physicochemical; details: 50% TFE in 0.05% aq. TFA (pH 2); 50% of α-helical structure denatured
Experimental: We next used temperature profiling during RP-HPLC to determine the self-association ability of the various analogs of V681 which would occur through interaction of the non-polar faces of these amphipathic α-helices. […] In order to investigate the stability of V681 in a hydrophobic environment, we carried out a temperature denaturation study in solution, as monitored by circular dichroism spectroscopy. […]
CD Temperature Denaturation Study of Peptide V681—The native peptide V681 was dissolved in 0.05% aqueous TFA containing 50% TFE, pH 2, loaded into a 0.02 cm fused silica cell and peptide ellipticity scanned from 190 to 250 nm at temperatures of 5, 15, 25, 35, 45, 55, 65 and 80° C. […] ([θ]t−[θ]u)/([θ]5−[θ]u) was calculated and plotted against temperature in order to obtain the thermal melting profiles, where [θ]5 and [θ]u represent the molar ellipticity values for the fully folded and fully unfolded species, respectively. [θ]u was determined in the presence of 8M urea with a value of 1500 deg cm^2 dmol^−1 to represent a totally random coil state (31). The melting temperature (Tm) was calculated as the temperature at which the α-helix was 50% denatured (([θ]t−[θ]u)/([θ]5−[θ]u)=0.5) and the values were taken as a measure of α-helix stability.

human red blood cells = assay: Hemolysis time study (0-8 hours, 8-500 μg/ml); details: 500 μg/ml, after 1 hour incubation
Experimental: The percent hemolysis of cells was determined spectrophotometrically by comparison with the complete hemolysis of cells in water.
[…] Peptide samples were diluted 2 fold in order to determine the concentration that produced no hemolysis. […] Hemoglobin release was determined spectrophotometrically at 562 nm. The hemolytic titer was the highest 2-fold dilution of the peptide that still caused release of hemoglobin from erythrocytes. The control for no release of hemoglobin was a sample of 1% erythrocytes without any peptide added. […] Peptide samples were diluted 2 fold in order to determine the concentration that produced no hemolysis. […] Hemoglobin release was determined spectrophotometrically at 570 nm. The hemolytic titer was the highest 2-fold dilution of the peptide that still caused release of hemoglobin from erythrocytes. The control for no release of hemoglobin was a sample of 1% erythrocytes without any peptide added.

[5] = system: Pseudomonas aeruginosa strains; details: for Antimicrobial activity Fold: fold improvement in geometric mean MIC compared to V681; for MIC CP 204: strain CP 204
[6] = methicillin-resistant clinical strain
[7] = geometric mean of six Pseudomonas aeruginosa clinical isolates

| Structure (SMILES) | MIC (μg/ml) S. epidermidis C621 wt [1] [µg/mL] | MIC (μg/ml) E. coli C500 abs [2] [µg/mL] | MIC (μg/ml) E. coli C498 wt [2] [µg/mL] | MIC (μg/ml) St C610 abs (S. typhimurium C610 abs; C610 abs) [µg/mL] | MIC (μg/ml) St C587 wt ([3]; C610 abs) [µg/mL] | MIC (μg/ml) Pa H188 abs (P. aeruginosa H187 wt) [µg/mL] | MIC (μg/ml) Pa H187 wt (P. aeruginosa H187 wt; H187 wt) [µg/mL] | MIC (μg/ml) E. faecalis C625 wt (E. faecalis) [µg/mL] | MIC (μg/ml) C. albicans (C. albicans; fungus) [µg/mL] | MIC (μg/ml) S. aureus 623 methR (Staphylococcus aureus; [6]) [µg/mL] | MIC (μg/ml) S. aureus 622 wt (Staphylococcus aureus; wild type strain) [µg/mL] | MIC (μg/ml) C. xerosis C875 wt (Corynebacterium xerosis) [µg/mL] | Antimicrobial activity Fold [5] | MIC GM [5, 7] [µg/mL] | MIC CP 204 [5] [µg/mL] | MIC M 2 ([5]; strain M 2) [µg/mL] | MIC PA 14 ([5]; strain PA 14) [µg/mL] | MIC PAK ([5]; strain PAK) [µg/mL] | MIC PAO 1 ([5]; strain PAO 1) [µg/mL] | MIC WR 5 ([5]; strain WR 5) [µg/mL] | also measured |
| --- | --- | --- | --- | --- | --- | --- | --- | --- | --- | --- | --- | --- | --- | --- | --- | --- | --- | --- | --- | --- | --- |
| CC[C@H](C)[C@H](NC(=O)[C@H](C)NC(=O)[C@H](CCCCN)NC(=O)[C@H](CC(C)C)NC(=O)[C@H](C)NC(=O)[C@@H](NC(=O)[C@H](Cc1c[nH]cn1)NC(=O)[C@H](CC(C)C)NC(=O)[C@@H](NC(=O)[C@@H](NC(=O)[C@H](CCCCN)NC(=O)[C@@H](NC(=O)[C@H](C)NC(=O)[C@H](CO)NC(=O)[C@H](CCCCN)NC(=O)[C@H](Cc1ccccc1)NC(=O)[C@@H](NC(=O)[C@H](CCCCN)NC(=O)[C@H](CC(C)C)NC(=O)[C@H](Cc1ccccc1)NC(=O)[C@H](CO)NC(=O)[C@H](CCCCN)NC(=O)[C@H](Cc1c[nH]c2ccccc12)NC(=O)[C@H](CCCCN)NC(C)=O)[C@@H](C)O)C(C)C)[C@@H](C)O)C(C)C)[C@@H](C)O)C(=O)N[C@@H](CO)C(=O)N[C@@H](CO)C(N)=O [Peptide V681, reference compound] | 6.3 (≈ 2.13 µM) | 3.1 (≈ 1.05 µM) | 6.3 (≈ 2.13 µM) | 3.1 (≈ 1.05 µM) | 12.5 (≈ 4.22 µM) | 3.1 (≈ 1.05 µM) | 6.3 (≈ 2.13 µM) | 6.3 (≈ 2.13 µM) | 12.5 (≈ 4.22 µM) | 6.3 (≈ 2.13 µM) | 3.1 (≈ 1.05 µM) | 3.1 (≈ 1.05 µM) | 1.0 | 27.8 (≈ 9.39 µM) | 15.6 (≈ 5.27 µM) | 15.6 (≈ 5.27 µM) | 62.5 (≈ 21.1 µM) | 31.3 (≈ 10.6 µM) | 15.6 (≈ 5.27 µM) | 62.5 (≈ 21.1 µM) | transition temperature Tm [4]: 79.3 °C; hemolysis of human red blood cells (human red blood cells): 100% |
| CC[C@H](C)[C@H](NC(=O)[C@H](C)NC(=O)[C@H](CCCCN)NC(=O)[C@H](CC(C)C)NC(=O)[C@H](C)NC(=O)[C@@H](NC(=O)[C@H](Cc1c[nH]cn1)NC(=O)[C@H](CC(C)C)NC(=O)[C@@H](NC(=O)[C@@H](NC(=O)[C@H](CCCCN)NC(=O)[C@@H](C)NC(=O)[C@H](C)NC(=O)[C@H](CO)NC(=O)[C@H](CCCCN)NC(=O)[C@H](Cc1ccccc1)NC(=O)[C@@H](NC(=O)[C@H](CCCCN)NC(=O)[C@H](CC(C)C)NC(=O)[C@H](Cc1ccccc1)NC(=O)[C@H](CO)NC(=O)[C@H](CCCCN)NC(=O)[C@H](Cc1c[nH]c2ccccc12)NC(=O)[C@H](CCCCN)NC(C)=O)[C@@H](C)O)[C@@H](C)O)C(C)C)[C@@H](C)O)C(=O)N[C@@H](CO)C(=O)N[C@@H](CO)C(N)=O [NAD] | 1.6 (≈ 0.545 µM) | 1.6 (≈ 0.545 µM) | 3.1 (≈ 1.06 µM) | 3.1 (≈ 1.06 µM) | 12.5 (≈ 4.26 µM) | 1.6 (≈ 0.545 µM) | 3.1 (≈ 1.06 µM) | 12.5 (≈ 4.26 µM) |  | 3.1 (≈ 1.06 µM) | 1.6 (≈ 0.545 µM) | 1.6 (≈ 0.545 µM) | 1.3 |  | 7.8 (≈ 2.66 µM) |  |  |  |  |  | MIC (μg/ml) C. albicans (C. albicans): 12.5 µg/mL (≈ 4.26 µM); MIC GM ([5]; strains): 22.1 µg/mL (≈ 7.53 µM); MIC M 2 ([5]; strains): 7.8 µg/mL (≈ 2.66 µM); MIC PA 14 ([5]; strains): 31.3 µg/mL (≈ 10.7 µM); MIC PAK ([5]; strains): 62.5 µg/mL (≈ 21.3 µM); MIC PAO 1 ([5]; strains): 15.6 µg/mL (≈ 5.32 µM); MIC WR 5 ([5]; strains): 62.5 µg/mL (≈ 21.3 µM) |
| CC[C@H](C)[C@H](NC(=O)[C@H](C)NC(=O)[C@H](CCCCN)NC(=O)[C@H](CC(C)C)NC(=O)[C@H](C)NC(=O)[C@@H](NC(=O)[C@H](Cc1cnc[nH]1)NC(=O)[C@H](CC(C)C)NC(=O)[C@@H](NC(=O)[C@@H](NC(=O)[C@H](CCCCN)NC(=O)[C@H](CCCCN)NC(=O)[C@H](C)NC(=O)[C@H](CO)NC(=O)[C@H](CCCCN)NC(=O)[C@H](Cc1ccccc1)NC(=O)[C@@H](NC(=O)[C@H](CCCCN)NC(=O)[C@H](CC(C)C)NC(=O)[C@H](Cc1ccccc1)NC(=O)[C@H](CO)NC(=O)[C@H](CCCCN)NC(=O)[C@H](Cc1c[nH]c2ccccc12)NC(=O)[C@H](CCCCN)NC(C)=O)[C@@H](C)O)[C@@H](C)O)C(C)C)[C@@H](C)O)C(=O)N[C@@H](CO)C(=O)N[C@@H](CO)C(N)=O [NKL] | 6.3 (≈ 2.11 µM) | 3.1 (≈ 1.04 µM) | 3.1 (≈ 1.04 µM) |  |  |  |  |  | 50.0 (≈ 16.7 µM) |  |  | 1.6 (≈ 0.535 µM) | 0.6 | 49.6 (≈ 16.6 µM) | 7.8 (≈ 2.61 µM) | 31.3 (≈ 10.5 µM) | 62.5 (≈ 20.9 µM) | 125.0 (≈ 41.8 µM) | 31.3 (≈ 10.5 µM) | 250.0 (≈ 83.6 µM) | MIC (μg/ml) St C610 abs (S. typhimurium C610 abs; Salmonella typhimurium antibiotic sensitive strain): 3.1 µg/mL (≈ 1.04 µM); MIC (μg/ml) St C587 wt ([3]; Salmonella typhimurium wild-type lab strain): 6.3 µg/mL (≈ 2.11 µM); MIC (μg/ml) Pa H188 abs (P. aeruginosa H187 wt; Pseudomonas aeruginosa antibiotic sensitive strain): 3.1 µg/mL (≈ 1.04 µM); MIC (μg/ml) Pa H187 wt (P. aeruginosa H187 wt; Pseudomonas aeruginosa wild-type lab strain): 6.3 µg/mL (≈ 2.11 µM); MIC (μg/ml) E. faecalis C625 wt (E. faecalis; wild type strain): 50.0 µg/mL (≈ 16.7 µM); MIC (μg/ml) S. aureus 622 wt (Staphylococcus aureus): 12.5 µg/mL (≈ 4.18 µM); MIC (μg/ml) S. aureus 623 methR (Staphylococcus aureus): 12.5 µg/mL (≈ 4.18 µM); MIC (μg/ml) CP 204 ([5]; Pseudomonas aeruginosa clinical isolate CP 204): 7.8 µg/mL (≈ 2.61 µM); MIC (μg/ml) M 2 ([5]; Pseudomonas aeruginosa clinical isolate M 2): 31.3 µg/mL (≈ 10.5 µM); MIC (μg/ml) PA 14 ([5]; Pseudomonas aeruginosa clinical isolate PA 14): 62.5 µg/mL (≈ 20.9 µM); MIC (μg/ml) PAK ([5]; Pseudomonas aeruginosa clinical isolate PAK): 125.0 µg/mL (≈ 41.8 µM); MIC (μg/ml) PAO 1 ([5]; Pseudomonas aeruginosa clinical isolate PAO 1): 31.3 µg/mL (≈ 10.5 µM); MIC (μg/ml) WR 5 ([5]; Pseudomonas aeruginosa clinical isolate WR 5): 250.0 µg/mL (≈ 83.6 µM); MIC (μg/ml) GM ([5]; geometric mean of the MIC values for the 6 Pseudomonas aeruginosa clinical isolates): 49.6 µg/mL (≈ 16.6 µM) |
